From patent publication US20230322846A9, “NEUROACTIVE STEROIDS AND THEIR METHODS OF USE” (SAGE THERAPEUTICS, INC., priority 2018, published 2023)
pIC50: −log10 of the molar value.

Target: [35S]-TBPS binding, rat brain cortical membranes
Assay: Steroid inhibition of [35S]-TBPS binding
Conditions: 3 nM [35S]-TBPS, in the presence of 5 mM GABA
Summary of the method: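 Rat cortical P2 membranes incubated 90 min at room temperature with 3 nM [35S]-TBPS, […] and test compound (0.5% DMSO final) in NaCl/Na–K phosphate pH 7.4; nonspecific binding with […]. Filter-bound radioactivity counted; IC50 and Imax from nonlinear fits, mean ± SEM.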

Compound	pIC50
CCOC[C@@]1(O)CC[C@H]2[C@H](CC[C@@H]3[C@@H]2CC[C@]2(C)[C@@H]([C@H](C)Cn4nccn4)CC[C@@H]32)C1 [Example 265, (3R,5R,8R,9R,10S,13S,14S,17R)-17-((S)-1-(2H-1,2,3-triazol-2-yl)propan-2-yl)-3-(ethoxymethyl)-13-methylhexadecahydro-1H-cyclopenta[a]phenanthren-3-ol]	6.00 to 7.00
CCOC[C@@]1(O)CC[C@H]2[C@H](CC[C@@H]3[C@@H]2CC[C@]2(C)[C@@H]([C@@H](C)Cn4nccn4)CC[C@@H]32)C1 [Example 266, (3R,5R,8R,9R,10S,13S,14S,17R)-17-((R)-1-(2H-1,2,3-triazol-2-yl)propan-2-yl)-3-(ethoxymethyl)-13-methylhexadecahydro-1H-cyclopenta[a]phenanthren-3-ol]	6.00 to 7.00
CCOC[C@@]1(O)CC[C@H]2[C@H](CC[C@@H]3[C@@H]2CC[C@]2(C)[C@@H]([C@H](C)Cn4ccnn4)CC[C@@H]32)C1 [Example 267, (3R,5R,8R,9R,10S,13S,14S,17R)-17-((S)-1-(1H-1,2,3-triazol-1-yl)propan-2-yl)-3-(ethoxymethyl)-13-methylhexadecahydro-11H-cyclopenta[a]phenanthren-3-ol]	> 7.00
CCOC[C@@]1(O)CC[C@H]2[C@H](CC[C@@H]3[C@@H]2CC[C@]2(C)[C@@H]([C@@H](C)Cn4ccnn4)CC[C@@H]32)C1 [Example 268, (3R,5R,8R,9R,10S,13S,14S,17R)-17-((R)-1-(1H-1,2,3-triazol-1-yl)propan-2-yl)-3-(ethoxymethyl)-13-methylhexadecahydro-1H-cyclopenta[a]phenanthren-3-ol]	> 7.00
CCOC[C@@]1(O)CC[C@H]2[C@H](CC[C@@H]3[C@@H]2CC[C@]2(C)[C@@H]([C@@H](C)Cn4cc(C#N)cn4)CC[C@@H]32)C1 [Example 269, 1-((R)-2-((3R,5R,8R,9R,10S,13S,14S,17R)-3-(ethoxymethyl)-3-hydroxy-13-methylhexadecahydro-1H-cyclopenta[a]phenanthren-17-yl)propyl)-1H-pyrazole-4-carbonitrile]	> 7.00
CC[C@@]1(O)CC[C@H]2[C@H](CC[C@@H]3[C@@H]2CC[C@]2(C)[C@@H]([C@H](C)Cn4ccc(C#N)n4)CC[C@@H]32)C1 [Example 271, 1-((S)-2-((3R,5R,8R,9R,10S,13S,14S,17R)-3-ethyl-3-hydroxy-13-methylhexadecahydro-1H-cyclopenta[a]phenanthren-17-yl)propyl)-1H-pyrazole-3-carbonitrile]	> 7.00
CC[C@@]1(O)CC[C@H]2[C@H](CC[C@@H]3[C@@H]2CC[C@]2(C)[C@@H]([C@@H](C)Cn4nccc4C#N)CC[C@@H]32)C1 [Example 273, 1-((R)-2-((3R,5R,8R,9R,10S,13S,14S,17R)-3-ethyl-3-hydroxy-13-methylhexadecahydro-1H-cyclopenta[a]phenanthren-17-yl)propyl)-1H-pyrazole-5-carbonitrile]	> 7.00
CC[C@@]1(O)CC[C@H]2[C@H](CC[C@@H]3[C@@H]2CC[C@]2(C)[C@@H]([C@H](C)Cn4nccc4C#N)CC[C@@H]32)C1 [Example 274, 1-((S)-2-((3R,5R,8R,9R,10S,13S,14S,17R)-3-ethyl-3-hydroxy-13-methylhexadecahydro-1H-cyclopenta[a]phenanthren-17-yl)propyl)-1H-pyrazole-5-carbonitrile]	6.00 to 7.00
CC[C@@]1(O)CC[C@H]2[C@H](CC[C@@H]3[C@@H]2CC[C@]2(C)[C@@H]([C@@H](C)Cn4cc(C#N)cn4)CC[C@@H]32)C1 [Example 275, 1-((R)-2-((3R,5R,8R,9R,10S,13S,14S,17R)-3-ethyl-3-hydroxy-13-methylhexadecahydro-1H-cyclopenta[a]phenanthren-17-yl)propyl)-1H-pyrazole-4-carbonitrile]	> 7.00
CCOC[C@@]1(O)CC[C@@]2(C)[C@H](CC[C@@H]3[C@@H]2CC[C@]2(C)[C@@H]([C@@H](C)Cn4ccc(C#N)n4)CC[C@@H]32)C1 [Example 279, 1-((R)-2-((3R,5R,8R,9S,10S,13S,14S,17R)-3-(ethoxymethyl)-3-hydroxy-10,13-dimethylhexadecahydro-1H-cyclopenta[a]phenanthren-17-yl)propyl)-1H-pyrazole-3-carbonitrile]	> 7.00
COC[C@@]1(O)CC[C@@]2(C)[C@H](CC[C@@H]3[C@@H]2[C@H](O)C[C@]2(C)[C@@H]([C@H](C)Cn4cc(C#N)cn4)CC[C@@H]32)C1 [Example 282, 1-((S)-2-((3R,5R,8S,9S,10S,11R,13S,14S,17R)-3,11-dihydroxy-3-(methoxymethyl)-10,13-dimethylhexadecahydro-1H-cyclopenta[a]phenanthren-17-yl)propyl)-1H-pyrazole-4-carbonitrile]	6.00 to 7.00
COC[C@@]1(O)CC[C@@]2(C)[C@H](CC[C@@H]3[C@@H]2[C@H](O)C[C@]2(C)[C@@H]([C@@H](C)Cn4cc(C#N)cn4)CC[C@@H]32)C1 [Example 283, 1-((R)-2-((3R,5R,8S,9S,10S,11R,13S,14S,17R)-3,11-dihydroxy-3-(methoxymethyl)-10,13-dimethylhexadecahydro-1H-cyclopenta[a]phenanthren-17-yl)propyl)-1H-pyrazole-4-carbonitrile]	6.00 to 7.00
CCOC[C@@]1(O)CC[C@H]2[C@H](CC[C@@H]3[C@@H]2CC[C@]2(C)[C@@H]([C@@H](C)Cn4nccc4C#N)CC[C@@H]32)C1 [Example 285, 1-((R)-2-((3R,5R,8R,9R,10S,13S,14S,17R)-3-(ethoxymethyl)-3-hydroxy-13-methylhexadecahydro-1H-cyclopenta[a]phenanthren-17-yl)propyl)-1H-pyrazole-5-carbonitrile]	> 7.00
CCOC[C@@]1(O)CC[C@H]2[C@H](CC[C@@H]3[C@@H]2CC[C@]2(C)[C@@H]([C@@H](C)Cn4ccc(C#N)n4)CC[C@@H]32)C1 [Example 288, 1-((R)-2-((3R,5R,8R,9R,10S,13S,14S,17R)-3-(ethoxymethyl)-3-hydroxy-13-methylhexadecahydro-1H-cyclopenta[a]phenanthren-17-yl)propyl)-1H-pyrazole-3-carbonitrile]	> 7.00
CCOC[C@@]1(O)CC[C@H]2[C@H](CC[C@@H]3[C@@H]2CC[C@]2(C)[C@@H]([C@H](C)Cn4nnc(C)n4)CC[C@@H]32)C1 [Example 289, (3R,5R,8R,9R,10S,13S,14S,17R)-3-(ethoxymethyl)-13-methyl-17-((S)-1-(5-methyl-2H-tetrazol-2-yl)propan-2-yl)hexadecahydro-1H-cyclopenta[a]phenanthren-3-ol]	> 7.00
CCOC[C@@]1(O)CC[C@H]2[C@H](CC[C@@H]3[C@@H]2CC[C@]2(C)[C@@H]([C@@H](C)Cn4nnc(C)n4)CC[C@@H]32)C1 [Example 290, (3R,5R,8R,9R,10S,13S,14S,17R)-3-(ethoxymethyl)-13-methyl-17-((R)-1-(5-methyl-2H-tetrazol-2-yl)propan-2-yl)hexadecahydro-1H-cyclopenta[a]phenanthren-3-ol]	> 7.00
